Assay results reported in patent US20260028365A1 (BIOGEN MA INC., priority 2022, published 2026).
Where two headings read alike, the source gives them in different places.

Legend:
JH2 domain of human Tyk2 = JH2 domain of human Tyk2 (Homo sapiens (Human), UniProt P29597); test: JH2 Biochemical Assay (TR-FRET probe displacement); format: binding
Tyk2 = Tyk2 (Homo sapiens (Human), UniProt P29597); test: pSTAT4 Cell Assay (MSD, NK92 cells); format: cell-based
[1] = TR-FRET probe displacement, JH2 domain of human Tyk2
[2] = JH2 domain of human Tyk2, TR-FRET probe displacement
[3] = TR-FRET probe displacement, JH2 domain

Chain of JH2 domain of human Tyk2 (P29597 575-876): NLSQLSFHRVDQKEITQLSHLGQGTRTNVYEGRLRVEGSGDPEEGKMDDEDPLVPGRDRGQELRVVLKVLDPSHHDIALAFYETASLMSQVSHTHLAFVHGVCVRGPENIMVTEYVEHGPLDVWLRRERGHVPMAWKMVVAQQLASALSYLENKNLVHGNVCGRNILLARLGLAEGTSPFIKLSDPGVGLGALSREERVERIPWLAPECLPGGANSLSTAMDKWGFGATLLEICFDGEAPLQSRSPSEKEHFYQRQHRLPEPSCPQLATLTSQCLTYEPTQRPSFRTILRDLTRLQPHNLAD
Chain of Tyk2 (P29597 whole entry, the tested form may be a part): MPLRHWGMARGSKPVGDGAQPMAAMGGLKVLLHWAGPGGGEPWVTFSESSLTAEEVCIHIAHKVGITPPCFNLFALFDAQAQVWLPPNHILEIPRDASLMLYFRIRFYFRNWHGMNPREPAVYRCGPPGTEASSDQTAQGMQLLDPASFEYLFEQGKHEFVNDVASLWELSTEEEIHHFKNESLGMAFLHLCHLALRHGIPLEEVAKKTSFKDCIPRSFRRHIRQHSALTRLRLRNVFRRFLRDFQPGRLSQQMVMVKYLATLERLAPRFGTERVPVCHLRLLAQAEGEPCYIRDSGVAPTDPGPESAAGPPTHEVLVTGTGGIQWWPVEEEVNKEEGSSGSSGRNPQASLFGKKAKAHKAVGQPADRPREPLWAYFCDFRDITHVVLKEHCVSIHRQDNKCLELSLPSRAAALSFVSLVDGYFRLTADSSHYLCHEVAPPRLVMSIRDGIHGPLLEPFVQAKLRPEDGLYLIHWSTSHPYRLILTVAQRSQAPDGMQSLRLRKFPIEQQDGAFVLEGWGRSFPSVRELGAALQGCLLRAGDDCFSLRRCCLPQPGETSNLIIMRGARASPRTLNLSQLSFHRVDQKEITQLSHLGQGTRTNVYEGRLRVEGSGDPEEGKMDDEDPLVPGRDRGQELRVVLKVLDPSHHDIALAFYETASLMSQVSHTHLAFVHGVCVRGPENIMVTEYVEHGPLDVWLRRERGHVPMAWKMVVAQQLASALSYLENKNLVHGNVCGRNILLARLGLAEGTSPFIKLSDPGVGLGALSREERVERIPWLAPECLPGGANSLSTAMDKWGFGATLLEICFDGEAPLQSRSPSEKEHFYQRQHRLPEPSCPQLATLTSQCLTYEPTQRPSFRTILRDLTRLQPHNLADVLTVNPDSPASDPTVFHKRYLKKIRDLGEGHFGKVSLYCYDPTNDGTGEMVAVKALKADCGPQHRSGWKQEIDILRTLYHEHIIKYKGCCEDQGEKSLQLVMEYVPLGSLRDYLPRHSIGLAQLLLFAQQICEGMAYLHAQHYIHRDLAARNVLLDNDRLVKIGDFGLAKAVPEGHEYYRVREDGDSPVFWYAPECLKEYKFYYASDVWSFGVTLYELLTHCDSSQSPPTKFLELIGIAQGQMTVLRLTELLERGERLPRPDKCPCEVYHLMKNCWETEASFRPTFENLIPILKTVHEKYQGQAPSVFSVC

## CCOc1cnc(NC(C)=O)cc1Nc1cc(OC2CC(C)(O)C2)nc(C(C)(F)F)n1 (centres unmarked) [Example 53, N-(4-((2-(1,1-difluoroethyl)-6-(3-hydroxy-3-methylcyclobutoxy)pyrimidin-4-yl)amino)-5-ethoxypyridin-2-yl)acetamide]
JH2 domain of human Tyk2; [1]
  IC50: ≤ 10 nM
Tyk2; MSD
  IC50: 10 to 100 nM

## COCCOc1cnc(NC(C)=O)cc1Nc1cc(C)nc(C(C)CF)n1 (centres unmarked) [Example 82, N-(4-((2-(1-fluoropropan-2-yl)-6-methylpyrimidin-4-yl)amino)-5-(2-methoxyethoxy)pyridin-2-yl)acetamide]
JH2 domain of human Tyk2; [1]
  IC50: ≤ 10 nM
Tyk2; MSD
  IC50: 10 to 100 nM

## COc1cccnc1COc1cnc(NC(C)=O)cc1Nc1cc(C)nc(C(C)(F)F)n1 [Example 472, N-(4-((2-(1,1-difluoroethyl)-6-methylpyrimidin-4-yl)amino)-5-((3-methoxypyridin-2-yl)methoxy)pyridin-2-yl)acetamide]
JH2 domain of human Tyk2; [2]
  IC50: 10 to 100 nM
Tyk2; MSD
  IC50: 100 to 1000 nM

## CCOc1cnc(NC(C)=O)cc1Nc1cc(-c2cnn(CCN(C)C)c2)nc(C(C)(F)F)n1 [Example 308, N-(4-((2-(1,1-difluoroethyl)-6-(1-(2-(dimethylamino)ethyl)-1H-pyrazol-4-yl)pyrimidin-4-yl)amino)-5-ethoxypyridin-2-yl)acetamide]
JH2 domain of human Tyk2; [1]
  IC50: ≤ 10 nM
Tyk2; MSD
  IC50: 10 to 100 nM

## CCc1cc(COc2cnc(NC(C)=O)cc2Nc2cc(C)nc(C(C)(F)F)n2)on1 [Example 319, N-(4-((2-(1,1-difluoroethyl)-6-methylpyrimidin-4-yl)amino)-5-((3-ethylisoxazol-5-yl)methoxy)pyridin-2-yl)acetamide]
JH2 domain of human Tyk2; [1]
  IC50: ≤ 10 nM
Tyk2; MSD
  IC50: 10 to 100 nM

## COC(C)(C)c1cc(-c2cnc(NC(C)=O)cc2Nc2cc(C)nc(C(C)(F)F)n2)ncn1 [Example 264, N-(4-((2-(1,1-difluoroethyl)-6-methylpyrimidin-4-yl)amino)-5-(6-(2-methoxypropan-2-yl)pyrimidin-4-yl)pyridin-2-yl)acetamide]
JH2 domain of human Tyk2; [1]
  IC50: 100 to 1000 nM
Tyk2; MSD
  IC50: 100 to 1000 nM

## COCCOc1cnc(NC(C)=O)cc1Nc1nccc(C(C)(F)F)n1 [Example 75, N-(4-((4-(1,1-difluoroethyl)pyrimidin-2-yl)amino)-5-(2-methoxyethoxy)pyridin-2-yl)acetamide]
JH2 domain of human Tyk2; [1]
  IC50: ≤ 10 nM
Tyk2; MSD
  IC50: 100 to 1000 nM

## CCc1cc(Nc2cc(NC(C)=O)ncc2-c2cnc(CN(C)C)cn2)nc(C(C)(F)F)n1 [Example 895, N-(4-((2-(1,1-difluoroethyl)-6-ethylpyrimidin-4-yl)amino)-5-(5-((dimethylamino)methyl)pyrazin-2-yl)pyridin-2-yl)acetamide]
JH2 domain of human Tyk2; [3]
  IC50: ≤ 10 nM
Tyk2
  IC50: ≤ 10 nM

## CC(=O)Nc1cc(Nc2ccnc(C(C)(F)F)n2)c(-c2nnc(N3CCN(C)CC3)s2)cn1 [Example 774, N-(4-((2-(1,1-difluoroethyl)pyrimidin-4-yl)amino)-5-(5-(4-methylpiperazin-1-yl)-1,3,4-thiadiazol-2-yl)pyridin-2-yl)acetamide]
JH2 domain of human Tyk2; [3]
  IC50: ≤ 10 nM
Tyk2
  IC50: ≤ 10 nM

## CCc1cc(Nc2cc(NC(C)=O)ncc2-c2cnc(N(C)C)cn2)nc(C(C)(F)F)n1 [Example 856, N-(4-((2-(1,1-difluoroethyl)-6-ethylpyrimidin-4-yl)amino)-5-(5-(dimethylamino)pyrazin-2-yl)pyridin-2-yl)acetamide]
JH2 domain of human Tyk2; [3]
  IC50: ≤ 10 nM
Tyk2
  IC50: 10 to 100 nM

## CCc1cnc(COc2cnc(NC(C)=O)cc2Nc2cc(C)nc(C(C)(F)F)n2)o1 [Example 327, N-(4-((2-(1,1-difluoroethyl)-6-methylpyrimidin-4-yl)amino)-5-((5-ethyloxazol-2-yl)methoxy)pyridin-2-yl)acetamide]
JH2 domain of human Tyk2; [1]
  IC50: ≤ 10 nM
Tyk2; MSD
  IC50: 10 to 100 nM

## CC(=O)Nc1cc(Nc2ccnc(C(C)(F)F)n2)c(-c2cnn(CCN3CCN(C)CC3)n2)cn1 [Example 779, N-(4-((2-(1,1-difluoroethyl)pyrimidin-4-yl)amino)-5-(2-(2-(4-methylpiperazin-1-yl)ethyl)-2H-1,2,3-triazol-4-yl)pyridin-2-yl)acetamide]
JH2 domain of human Tyk2; [3]
  IC50: ≤ 10 nM
Tyk2
  IC50: 10 to 100 nM

## COCCn1cnc(-c2cnc(NC(C)=O)cc2Nc2cc(C)nc(C(C)(F)F)n2)n1 [Example 263, N-(4-((2-(1,1-difluoroethyl)-6-methylpyrimidin-4-yl)amino)-5-(1-(2-methoxyethyl)-1H-1,2,4-triazol-3-yl)pyridin-2-yl)acetamide]
JH2 domain of human Tyk2; [1]
  IC50: ≤ 10 nM
Tyk2; MSD
  IC50: 100 to 1000 nM

## CCOc1cnc(NC(C)=O)cc1Nc1ccnc(C(C)(C)F)n1 [Example 31, N-(5-ethoxy-4-((2-(2-fluoropropan-2-yl)pyrimidin-4-yl)amino)pyridin-2-yl)acetamide]
JH2 domain of human Tyk2; [1]
  IC50: ≤ 10 nM
Tyk2; MSD
  IC50: 10 to 100 nM

## CC(=O)Nc1cc(Nc2cc(C)nc(C(C)(F)F)n2)c(OCC2CC23CCOC3)cn1 (centres unmarked) [Example 432, N-(5-((5-oxaspiro[2.4]heptan-1-yl)methoxy)-4-((2-(1,1-difluoroethyl)-6-methylpyrimidin-4-yl)amino)pyridin-2-yl)acetamide]
JH2 domain of human Tyk2; [2]
  IC50: ≤ 10 nM
Tyk2; MSD
  IC50: 10 to 100 nM

## COc1nc(C)cc(Nc2cc(NC(C)=O)ncc2-c2ccn(C)n2)n1 [Example 551, N-(4-((2-methoxy-6-methylpyrimidin-4-yl)amino)-5-(1-methyl-1H-pyrazol-3-yl)pyridin-2-yl)acetamide]
JH2 domain of human Tyk2; [2]
  IC50: ≤ 10 nM
Tyk2; MSD
  IC50: 10 to 100 nM

## COc1nccc(-c2cnc(NC(C)=O)cc2Nc2cccc(C(C)(F)F)n2)n1 [Example 177, N-(4-((6-(1,1-difluoroethyl)pyridin-2-yl)amino)-5-(2-methoxypyrimidin-4-yl)pyridin-2-yl)acetamide]
JH2 domain of human Tyk2; [1]
  IC50: ≤ 10 nM
Tyk2; MSD
  IC50: ≤ 10 nM

## CC(=O)Nc1cc(Nc2cc(C)nc(C(C)(F)F)n2)c(OCc2cccc(F)c2)cn1 [Example 466, N-(4-((2-(1,1-difluoroethyl)-6-methylpyrimidin-4-yl)amino)-5-((3-fluorobenzyl)oxy)pyridin-2-yl)acetamide]
JH2 domain of human Tyk2; [2]
  IC50: ≤ 10 nM
Tyk2; MSD
  IC50: 10 to 100 nM

## COc1cc(-c2cnc(NC(C)=O)cc2Nc2ccnc(C(C)(F)F)n2)ncc1F [Example 699, N-(4′-((2-(1,1-difluoroethyl)pyrimidin-4-yl)amino)-5-fluorO4-methoxy-[2,3′-bipyridin]-6′-yl)acetamide]
JH2 domain of human Tyk2; [2]
  IC50: 10 to 100 nM
Tyk2; MSD
  IC50: ≥ 1000 nM

## CC(=O)Nc1cc(Nc2cc(C)nc(C34COC(C3)C4)n2)c(-c2cc3n(n2)CC(F)(F)C3)cn1 [Example 564, N-(4-((2-(2-oxabicyclo[2.1.1]hexan-4-yl)-6-methylpyrimidin-4-yl)amino)-5-(5,5-difluorO5,6-dihydrO4H-pyrrolo[1,2-b]pyrazol-2-yl)pyridin-2-yl)acetamide]
JH2 domain of human Tyk2; [2]
  IC50: ≤ 10 nM
Tyk2; MSD
  IC50: ≤ 10 nM

## CC(=O)Nc1cc(Nc2cc(C)nc(C(C)(F)F)n2)c(OCc2cccnc2)cn1 [Example 355, N-(4-((2-(1,1-difluoroethyl)-6-methylpyrimidin-4-yl)amino)-5-(pyridin-3-ylmethoxy)pyridin-2-yl)acetamide]
JH2 domain of human Tyk2; [1]
  IC50: ≤ 10 nM
Tyk2; MSD
  IC50: 10 to 100 nM

## COc1cnc(NC(C)=O)cc1Nc1cc(-c2ccc(C#N)cc2)nc(C(C)(F)F)n1 [Example 393, N-(4-((6-(4-cyanophenyl)-2-(1,1-difluoroethyl)pyrimidin-4-yl)amino)-5-methoxypyridin-2-yl)acetamide]
JH2 domain of human Tyk2; [2]
  IC50: ≤ 10 nM
Tyk2; MSD
  IC50: 10 to 100 nM

## COc1ccnc(Nc2cc(NC(C)=O)ncc2-c2ccn(C)n2)n1 [Example 553, N-(4-((4-methoxypyrimidin-2-yl)amino)-5-(1-methyl-1H-pyrazol-3-yl)pyridin-2-yl)acetamide]
JH2 domain of human Tyk2; [2]
  IC50: 10 to 100 nM
Tyk2; MSD
  IC50: 100 to 1000 nM

## CC(=O)Nc1cc(Nc2cc(C)nc(C(C)(F)F)n2)c(OCC2COCC3(CCC3)O2)cn1 (centres unmarked) [Example 443, N-(5-((5,8-dioxaspiro[3.5]nonan-6-yl)methoxy)-4-((2-(1,1-difluoroethyl)-6-methylpyrimidin-4-yl)amino)pyridin-2-yl)acetamide]
JH2 domain of human Tyk2; [2]
  IC50: ≤ 10 nM
Tyk2; MSD
  IC50: 10 to 100 nM

## CC(=O)Nc1cc(Nc2cc(C)nc(C34COC(C)(C3)C4)n2)c(-c2ccn(C)n2)cn1 [Example 554, N-(5-(1-methyl-1H-pyrazol-3-yl)-4-((6-methyl-2-(1-methyl-2-oxabicyclo[2.1.1]hexan-4-yl)pyrimidin-4-yl)amino)pyridin-2-yl)acetamide]
JH2 domain of human Tyk2; [2]
  IC50: 10 to 100 nM
Tyk2; MSD
  IC50: ≥ 1000 nM

## CC(=O)Nc1cc(Nc2ccnc(C(C)(F)F)n2)c(-c2cnn(CCN3CCOCC3)n2)cn1 [Example 778, N-(4-((2-(1,1-difluoroethyl)pyrimidin-4-yl)amino)-5-(2-(2-morpholinoethyl)-2H-1,2,3-triazol-4-yl)pyridin-2-yl)acetamide]
JH2 domain of human Tyk2; [3]
  IC50: ≤ 10 nM
Tyk2
  IC50: 10 to 100 nM

## CC(=O)Nc1cc(Nc2ccnc(C(C)(F)F)n2)c(-c2ccc3c(n2)CCC3=O)cn1 [Example 718, N-(4-((2-(1,1-difluoroethyl)pyrimidin-4-yl)amino)-5-(5-oxO6,7-dihydrO5H-cyclopenta[b]pyridin-2-yl)pyridin-2-yl)acetamide]
JH2 domain of human Tyk2; [2]
  IC50: ≤ 10 nM
Tyk2; MSD
  IC50: 10 to 100 nM

## COc1cnc(NC(C)=O)cc1Nc1cc(-c2cnn(C(C)C)c2F)nc(C(C)(F)F)n1 [Example 383, N-(4-((2-(1,1-difluoroethyl)-6-(5-fluoro-1-isopropyl-1H-pyrazol-4-yl)pyrimidin-4-yl)amino)-5-methoxypyridin-2-yl)acetamide]
JH2 domain of human Tyk2; [2]
  IC50: 10 to 100 nM
Tyk2; MSD
  IC50: 10 to 100 nM

## CCc1cc(Nc2cc(NC(C)=O)ncc2-c2cnc(C3COCCO3)cn2)nc(C(C)(F)F)n1 (centres unmarked) [Example 898, N-(5-(5-(1,4-dioxan-2-yl)pyrazin-2-yl)-4-((2-(1,1-difluoroethyl)-6-ethylpyrimidin-4-yl)amino)pyridin-2-yl)acetamide]
JH2 domain of human Tyk2; [3]
  IC50: ≤ 10 nM
Tyk2
  IC50: ≤ 10 nM

## CC(=O)Nc1cc(Nc2ccnc(C(C)(F)F)n2)c(-c2ccc(N3CCCC3)nn2)cn1 [Example 845, N-(4-((2-(1,1-difluoroethyl)pyrimidin-4-yl)amino)-5-(6-(pyrrolidin-1-yl)pyridazin-3-yl)pyridin-2-yl)acetamide]
JH2 domain of human Tyk2; [3]
  IC50: ≤ 10 nM
Tyk2
  IC50: ≤ 10 nM

## CC(=O)Nc1cc(Nc2ccnc(C(C)(F)F)n2)c(-c2ccc(OC(F)F)nn2)cn1 [Example 858, N-(4-((2-(1,1-difluoroethyl)pyrimidin-4-yl)amino)-5-(6-(difluoromethoxy)pyridazin-3-yl)pyridin-2-yl)acetamide]
JH2 domain of human Tyk2; [3]
  IC50: ≤ 10 nM
Tyk2
  IC50: 10 to 100 nM
